Results as given in ChEMBL document CHEMBL1153295, “Stereoselective synthesis of 15- and 16-substituted isosteviol derivatives and their cytotoxic activities” (Bioorg Med Chem Lett, 2009).
Activity calls are given as the source filed them. No cut-off for these calls is given here.

System: B16-F10
Assay: Cytotoxicity against mouse B16F10 cells at 100 uM after 48 hrs by MTT assay
Type: functional
Conditions: not given

| Compound | inhibition |
| --- | --- |
| C=C[C@]12CC[C@H]3[C@@](C)(CCC[C@@]3(C)C(=O)OCC)[C@@H]1CC[C@](C)(C=O)C2 | inactive |
| CCOC(=O)[C@]1(C)CCC[C@@]2(C)[C@@H]3CC[C@@]4(C)C[C@]3(CC[C@@H]21)CC4=O | inactive |
| C[C@@]12CC[C@@H]3[C@@](CC[C@H]4[C@@]3(C)CCC[C@@]4(C)C(=O)O)(C[C@H]1O)C2 | inactive |
| C=CC(=O)O[C@@H]1C[C@]23CC[C@H]4[C@@](C)(CCC[C@@]4(C)C(=O)OCC)[C@@H]2CC[C@@]1(C)C3 | inactive |
| C=C[C@]12CC[C@H]3[C@@](C)(CCC[C@@]3(C)C(=O)OCC)[C@@H]1CC[C@](C)(C(=O)O)C2 | inactive |
| CCOC(=O)[C@]1(C)CCC[C@@]2(C)[C@@H]3CC[C@@]4(C)C[C@]3(CC[C@@H]21)[C@@H]1CON(C)[C@@H]14 | inactive |
| C[C@]12CC[C@H]3[C@]4(C)CCC[C@@](C)(C(=O)O)[C@H]4CC[C@@]3(C1)[C@H](CO)[C@H]2O | inactive |
| CCOC(=O)[C@]1(C)CCC[C@@]2(C)[C@@H]3CC[C@@]4(C)C[C@]3(CC[C@@H]21)[C@H](CO[N+](=O)[O-])[C@H]4O[N+](=O)[O-] | inactive |
| C[C@@]12CC[C@@H]3[C@@](CC[C@H]4[C@@]3(C)CCC[C@@]4(C)C(=O)O)(CC1=O)C2 | inactive |
| CCOC(=O)[C@]1(C)CCC[C@@]2(C)[C@@H]3CC[C@@]4(C)C[C@]3(CC[C@@H]21)[C@@H]1CO[C@H]4O1 | inactive |

Same assay, conditions: B16-F10, 48 h

| Compound | inhibition at 100 µM |
| --- | --- |
| C=C[C@]12CC[C@H]3[C@@](C)(CCC[C@@]3(C)C(=O)OCC)[C@@H]1CC[C@](C)(CN)C2 | 34.3% |

System: B16-F10
Assay: Cytotoxicity against mouse B16F10 cells after 48 hrs by MTT assay
Type: functional, cell-based
Conditions: B16-F10, 48 h

| Compound | IC50 |
| --- | --- |
| CCOC(=O)[C@]1(C)CCC[C@@]2(C)[C@@H]3CC[C@@]4(C)C[C@]3(CC[C@@H]21)[C@H](COC(=O)c1cccnc1)[C@H]4OC(=O)c1cccnc1 | 22 µM |
| C=C[C@]12CC[C@H]3[C@@](C)(CCC[C@@]3(C)C(=O)OCC)[C@@H]1CC[C@](C)(CO)C2 | 24 µM |
| CCOC(=O)[C@]1(C)CCC[C@@]2(C)[C@@H]3CC[C@@]4(C)C[C@]3(CC[C@@H]21)[C@H](CO)[C@H]4O | 68 µM |
| CCOC(=O)[C@]1(C)CCC[C@@]2(C)[C@@H]3CC[C@@]4(C)C[C@]3(CC[C@@H]21)[C@@H]1CON[C@@H]14 | 15 µM |
| CCOC(=O)[C@]1(C)CCC[C@@]2(C)[C@@H]3CC[C@@]4(C)C[C@]3(CC[C@@H]21)[C@@H]1CN(c2ccc([N+](=O)[O-])cc2)N=C14 | 21 µM |
| C=C[C@]12CC[C@H]3[C@@](C)(CCC[C@@]3(C)C(=O)OCC)[C@@H]1CC[C@](C)(O)C2 | 26 µM |
| CCOC(=O)[C@]1(C)CCC[C@@]2(C)[C@@H]3CC[C@@]4(C)C[C@]3(CC[C@@H]21)c1cn(-c2ccccc2)nc14 | 19 µM |
| C=C[C@]12CC[C@H]3[C@@](C)(CCC[C@@]3(C)C(=O)OCC)[C@@H]1CC[C@](C)(C=N)C2 | 27.5 µM |
| CCOC(=O)[C@]1(C)CCC[C@@]2(C)[C@@H]3CC[C@@]4(C)C[C@]3(CC[C@@H]21)[C@H](COC(=O)c1cccnc1)[C@H]4O | 25 µM |
| CCOC(=O)[C@]1(C)CCC[C@@]2(C)[C@@H]3CC[C@@]4(C)C[C@]3(CC[C@@H]21)C[C@H]4O | 58 µM |
